The NIST ThermoML archive (doi:10.1021/je0504156)
± gives the expanded uncertainty stated by the source.

Assay: xn = mol fraction of the nth substance listed
Settings: 101 kPa, Liquid

Cc1cccc(O)c1 [3-methylphenol] + OCCO
Settings	mass density [kg/m3]	viscosity [mPa·s]
308.15 K, x1 = 0.0998	1088.36 ± 0.63	11.72 ± 0.22
308.15 K, x1 = 0.1999	1077.36 ± 0.61	12.32 ± 0.23
308.15 K, x1 = 0.3	1067.31 ± 0.6	12.33 ± 0.23
308.15 K, x1 = 0.3996	1058.33 ± 0.59	11.88 ± 0.22
308.15 K, x1 = 0.5	1050.38 ± 0.59	11.2 ± 0.21
308.15 K, x1 = 0.5967	1043.44 ± 0.59	10.37 ± 0.2
308.15 K, x1 = 0.7002	1036.6 ± 0.59	9.452 ± 0.18
308.15 K, x1 = 0.8	1031.15 ± 0.59	8.695 ± 0.17
308.15 K, x1 = 0.8989	1026.2 ± 0.6	8.03 ± 0.16
308.15 K, x1 = 1	1021.64 ± 0.61	7.701 ± 0.15
313.15 K, x1 = 0.0998	1084.66 ± 0.62	9.704 ± 0.18
313.15 K, x1 = 0.1999	1073.58 ± 0.6	10.13 ± 0.19
313.15 K, x1 = 0.3	1063.47 ± 0.59	10.02 ± 0.19
313.15 K, x1 = 0.3996	1054.44 ± 0.58	9.673 ± 0.18
313.15 K, x1 = 0.5	1046.47 ± 0.58	9.067 ± 0.17
313.15 K, x1 = 0.5967	1039.51 ± 0.58	8.417 ± 0.17
313.15 K, x1 = 0.7002	1032.66 ± 0.58	7.67 ± 0.15
313.15 K, x1 = 0.8	1027.19 ± 0.58	7.03 ± 0.14
313.15 K, x1 = 0.8989	1022.22 ± 0.59	6.496 ± 0.14
313.15 K, x1 = 1	1017.63 ± 0.6	6.12 ± 0.13
318.15 K, x1 = 0.0998	1080.98 ± 0.61	8.113 ± 0.16
318.15 K, x1 = 0.1999	1069.79 ± 0.59	8.371 ± 0.16
318.15 K, x1 = 0.3	1059.61 ± 0.58	8.275 ± 0.16
318.15 K, x1 = 0.3996	1050.55 ± 0.57	7.906 ± 0.16
318.15 K, x1 = 0.5	1042.56 ± 0.57	7.441 ± 0.15
318.15 K, x1 = 0.5967	1035.59 ± 0.57	6.893 ± 0.14
318.15 K, x1 = 0.7002	1028.7 ± 0.57	6.322 ± 0.13
318.15 K, x1 = 0.8	1023.23 ± 0.57	5.853 ± 0.12
318.15 K, x1 = 0.8989	1018.22 ± 0.58	5.346 ± 0.12
318.15 K, x1 = 1	1013.6 ± 0.59	5.022 ± 0.11
323.15 K, x1 = 0.0998	1077.28 ± 0.6	6.869 ± 0.14
323.15 K, x1 = 0.1999	1065.98 ± 0.58	7.015 ± 0.14
323.15 K, x1 = 0.3	1055.75 ± 0.57	6.894 ± 0.14
323.15 K, x1 = 0.3996	1046.64 ± 0.56	6.572 ± 0.14
323.15 K, x1 = 0.5	1038.63 ± 0.56	6.182 ± 0.13
323.15 K, x1 = 0.5967	1031.63 ± 0.56	5.763 ± 0.12
323.15 K, x1 = 0.7002	1024.74 ± 0.56	5.27 ± 0.12
323.15 K, x1 = 0.8	1019.25 ± 0.57	4.811 ± 0.11
323.15 K, x1 = 0.8989	1014.22 ± 0.57	4.433 ± 0.099
323.15 K, x1 = 1	1009.56 ± 0.58	4.158 ± 0.094
333.15 K, x1 = 0.0998	1069.86 ± 0.58	5.133 ± 0.11
333.15 K, x1 = 0.1999	1058.35 ± 0.56	5.087 ± 0.11
333.15 K, x1 = 0.3	1047.97 ± 0.55	4.972 ± 0.11
333.15 K, x1 = 0.3996	1038.8 ± 0.54	4.817 ± 0.11
333.15 K, x1 = 0.5	1030.72 ± 0.54	4.45 ± 0.099
333.15 K, x1 = 0.5967	1023.71 ± 0.54	4.145 ± 0.093
333.15 K, x1 = 0.7002	1016.76 ± 0.54	3.794 ± 0.085
333.15 K, x1 = 0.8	1011.25 ± 0.55	3.488 ± 0.079
333.15 K, x1 = 0.8989	1006.16 ± 0.56	3.219 ± 0.073
333.15 K, x1 = 1	1001.44 ± 0.57	2.98 ± 0.068
343.15 K, x1 = 0.0998	1060.26 ± 4	3.81 ± 0.085
343.15 K, x1 = 0.1999	1048.59 ± 4	3.82 ± 0.085
343.15 K, x1 = 0.3	1038.14 ± 4	3.72 ± 0.083
343.15 K, x1 = 0.3996	1028.9 ± 4	3.554 ± 0.08
343.15 K, x1 = 0.5	1020.81 ± 4	3.332 ± 0.075
343.15 K, x1 = 0.5967	1013.76 ± 4	3.096 ± 0.07
343.15 K, x1 = 0.7002	1006.79 ± 4	2.858 ± 0.065
343.15 K, x1 = 0.8	1001.25 ± 4	2.635 ± 0.061
343.15 K, x1 = 0.8989	996.13 ± 4	2.426 ± 0.056
343.15 K, x1 = 1	991.33 ± 4	2.231 ± 0.052
353.15 K, x1 = 0.0998	1055.21 ± 0.54	2.995 ± 0.068
353.15 K, x1 = 0.1999	1043.24 ± 0.53	2.967 ± 0.067
353.15 K, x1 = 0.3	1032.71 ± 0.51	2.882 ± 0.065
353.15 K, x1 = 0.3996	1023.39 ± 0.51	2.734 ± 0.062
353.15 K, x1 = 0.5	1015.21 ± 0.51	2.566 ± 0.059
353.15 K, x1 = 0.5967	1008.1 ± 0.51	2.401 ± 0.055
353.15 K, x1 = 0.7002	1001.08 ± 0.51	2.237 ± 0.052
353.15 K, x1 = 0.8	995.5 ± 0.53	2.048 ± 0.048
353.15 K, x1 = 0.8989	990.32 ± 0.56	1.901 ± 0.045
353.15 K, x1 = 1	985.42 ± 0.58	1.759 ± 0.042
